From US20170050957A1, “4-AMINO-6-(HETEROCYCLIC)PICOLINATES AND 6-AMINO-2-(HETEROCYCLIC)PYRIMIDINE-4-CARBOXYLATES AND THEIR USE AS HERBICIDES” (Dow AgroSciences LLC, priority 2013, published 2017)
Like-named read-outs stand apart in the source and are kept apart here.

Legend:
[1] = system: Key Broadleaf Weed and Crop Species; assay: Post-emergent Test II herbicidal activity (Table 15); format: in vivo; conditions: post-emergence, 336 h, 14 d; for pest or weed control at 35 g/ha: 35 g ai/ha; for pest or weed control at 70 g/ha: 70 g ai/ha; for pest or weed control at 140 g/ha: 140 g ai/ha
How it was run: (§1)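 Plants grown in greenhouse (~15 h photoperiod, 23-29 °C day, 22-28 °C night) to first or second true leaf stage, then sprayed post-emergence at 187 L/ha with a high rate and 1/2×, 1/4×, 1/8× and 1/16× dilutions. Injury scored visually after 14 d, 0-100% versus untreated plants.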

[2] = system: Key Grass and Sedge Weeds as well as Grass Crops; assay: Post-emergent Test II herbicidal activity (Table 16); format: in vivo; conditions: post-emergence, 336 h, 14 d; for pest or weed control at 35 g/ha: 35 g ai/ha; for pest or weed control at 70 g/ha: 70 g ai/ha; for pest or weed control at 140 g/ha: 140 g ai/ha
How it was run: as §1

[3] = Abutilon theophrasti, velvetleaf (Abutilon theophrasti), read-out: Visual Growth Reduction (%) 14 Days After Application, ABUTH
[4] = Amaranthus retroflexus, redroot pigweed (Amaranthus retroflexus), read-out: Visual Growth Reduction (%) 14 Days After Application, AMARE
[5] = Brassica napus, oilseed rape, canola (Brassica napus), read-out: Visual Growth Reduction (%) 14 Days After Application, BRSNN
[6] = Chenopodium album, lambsquarters (Chenopodium album), read-out: Visual Growth Reduction (%) 14 Days After Application, CHEAL
[7] = Euphorbia heterophylla, wild poinsettia (Euphorbia heterophylla), read-out: Visual Growth Reduction (%) 14 Days After Application, EPHHL
[8] = Helianthus annuus, sunflower (Helianthus annuus), read-out: Visual Growth Reduction (%) 14 Days After Application, HELAN
[9] = Cyperus esculentus, yellow nutsedge (Cyperus esculentus), read-out: Visual Growth Reduction (%) 14 Days After Application, CYPES
[10] = Echinochloa crus-galli, barnyardgrass (Echinochloa crus-galli), read-out: Visual Growth Reduction (%) 14 Days After Application, ECHCG
[11] = Oryza sativa, rice (Oryza sativa), read-out: Visual Growth Reduction (%) 14 Days After Application, ORYSA
[12] = Setaria faberi, giant foxtail (Setaria faberi), read-out: Visual Growth Reduction (%) 14 Days After Application, SETFA
[13] = Triticum aestivum, wheat, spring (Triticum aestivum), read-out: Visual Growth Reduction (%) 14 Days After Application, TRZAS
[14] = Zea mays, maize, corn (Zea mays), read-out: Visual Growth Reduction (%) 14 Days After Application, ZEAMX

COC(=O)c1nc(-c2cc3ccoc3cc2F)cc(N)c1Cl [Compound 2.04]
pest or weed control at 35 g/ha [1, 3]: 75 to 84%
pest or weed control at 70 g/ha [1, 3]: 85 to 94%
pest or weed control at 140 g/ha [1, 3]: 95 to 100%
pest or weed control at 35 g/ha [1, 4]: 95 to 100%
pest or weed control at 70 g/ha [1, 4]: 95 to 100%
pest or weed control at 140 g/ha [1, 4]: 95 to 100%
pest or weed control at 35 g/ha [1, 5]: 0 to 29%
pest or weed control at 70 g/ha [1, 5]: 0 to 29%
pest or weed control at 140 g/ha [1, 5]: 30 to 44%
pest or weed control at 35 g/ha [1, 6]: 95 to 100%
pest or weed control at 70 g/ha [1, 6]: 95 to 100%
pest or weed control at 140 g/ha [1, 6]: 95 to 100%
pest or weed control at 35 g/ha [1, 7]: 95 to 100%
pest or weed control at 70 g/ha [1, 7]: 95 to 100%
pest or weed control at 140 g/ha [1, 7]: 95 to 100%
pest or weed control at 35 g/ha [1, 8]: 0 to 29%
pest or weed control at 70 g/ha [1, 8]: 0 to 29%
pest or weed control at 140 g/ha [1, 8]: 30 to 44%
pest or weed control at 35 g/ha [2, 9]: 0 to 29%
pest or weed control at 70 g/ha [2, 9]: 0 to 29%
pest or weed control at 140 g/ha [2, 9]: 30 to 44%
pest or weed control at 35 g/ha [2, 10]: 60 to 74%
pest or weed control at 70 g/ha [2, 10]: 95 to 100%
pest or weed control at 140 g/ha [2, 10]: 95 to 100%
pest or weed control at 35 g/ha [2, 11]: 0 to 29%
pest or weed control at 70 g/ha [2, 11]: 0 to 29%
pest or weed control at 140 g/ha [2, 11]: 0 to 29%
pest or weed control at 35 g/ha [2, 12]: 60 to 74%
pest or weed control at 70 g/ha [2, 12]: 75 to 84%
pest or weed control at 140 g/ha [2, 12]: 85 to 94%
pest or weed control at 35 g/ha [2, 13]: 0 to 29%
pest or weed control at 70 g/ha [2, 13]: 30 to 44%
pest or weed control at 140 g/ha [2, 13]: 45 to 59%
pest or weed control at 35 g/ha [2, 14]: 60 to 74%
pest or weed control at 70 g/ha [2, 14]: 75 to 84%
pest or weed control at 140 g/ha [2, 14]: 85 to 94%
melting point: 98 °C

COC(=O)c1nc(-c2ccc3sccc3c2)c(F)c(N)c1Cl [Compound 3.03]
pest or weed control at 35 g/ha [1, 3]: 95 to 100%
pest or weed control at 70 g/ha [1, 3]: 95 to 100%
pest or weed control at 140 g/ha [1, 3]: 95 to 100%
pest or weed control at 35 g/ha [1, 4]: 95 to 100%
pest or weed control at 70 g/ha [1, 4]: 95 to 100%
pest or weed control at 140 g/ha [1, 4]: 95 to 100%
pest or weed control at 35 g/ha [1, 5]: 0 to 29%
pest or weed control at 70 g/ha [1, 5]: 60 to 74%
pest or weed control at 140 g/ha [1, 5]: 60 to 74%
pest or weed control at 35 g/ha [1, 6]: 95 to 100%
pest or weed control at 70 g/ha [1, 6]: 95 to 100%
pest or weed control at 140 g/ha [1, 6]: 95 to 100%
pest or weed control at 35 g/ha [1, 7]: 95 to 100%
pest or weed control at 70 g/ha [1, 7]: 95 to 100%
pest or weed control at 140 g/ha [1, 7]: 95 to 100%
pest or weed control at 35 g/ha [1, 8]: 95 to 100%
pest or weed control at 70 g/ha [1, 8]: 95 to 100%
pest or weed control at 140 g/ha [1, 8]: 95 to 100%
pest or weed control at 35 g/ha [2, 9]: 45 to 59%
pest or weed control at 70 g/ha [2, 9]: 45 to 59%
pest or weed control at 140 g/ha [2, 9]: 45 to 59%
pest or weed control at 35 g/ha [2, 10]: 85 to 94%
pest or weed control at 70 g/ha [2, 10]: 95 to 100%
pest or weed control at 140 g/ha [2, 10]: 95 to 100%
pest or weed control at 35 g/ha [2, 11]: 0 to 29%
pest or weed control at 70 g/ha [2, 11]: 0 to 29%
pest or weed control at 140 g/ha [2, 11]: 0 to 29%
pest or weed control at 35 g/ha [2, 12]: 0 to 29%
pest or weed control at 70 g/ha [2, 12]: 85 to 94%
pest or weed control at 140 g/ha [2, 12]: 85 to 94%
pest or weed control at 35 g/ha [2, 13]: 0 to 29%
pest or weed control at 70 g/ha [2, 13]: 30 to 44%
pest or weed control at 140 g/ha [2, 13]: 45 to 59%
pest or weed control at 35 g/ha [2, 14]: 95 to 100%
pest or weed control at 70 g/ha [2, 14]: 95 to 100%
pest or weed control at 140 g/ha [2, 14]: 95 to 100%
melting point: 84 to 85 °C
